This is an account of results in patent publication US20080311221A1, “LEWIS ACID AND OIL-SOLUBLE HYBRID PESTICIDE CONCENTRATE THAT SPONTANEOUSLY FORMS A WATER-BASED MICROEMULSION” (PBI/Gordon Corporation, priority 2007, published 2008).

Data set [1] can be described thus: Standard accelerated chemical stability test, HPLC of each active, 40° C. for thirty days. Type of data set: physicochemical. The settings on record: for Final percent concentration of active in concentrate: HPLC after 40° C. for thirty days, sealed container; for Initial percent concentration of active in concentrate: HPLC before storage, concentrate of Example 4 (so in the source); for % Diff: final vs initial, 40° C. for thirty days. As for the experimental part:
Another sample of the concentrate Example 4 was subjected to a standard accelerated chemical stability test by conducting an HPLC analysis of each of the active ingredients to determine the percent concentration of each active in the concentrate. The sample was then placed in a sealed container and stored at 40° C. for thirty days. An HPLC analysis was repeated following the extended storage period. All are within accepted limits as established by U.S. EPA for pesticidal products.

Data set [2] can be described thus: Ambient storage stability test, HPLC, 25° C. for two and one-half months. It is filed as physicochemical. The settings on record: for Final percent concentration of active in concentrate: HPLC after 25° C. for two and one-half months; for Initial percent concentration of active in concentrate: HPLC before storage, concentrate of Example 4 (so in the source); for % Diff: final vs initial, 25° C. for two and one-half months. The procedure:
A further sample of the concentrate of Example 4 was tested under ambient storage conditions at 25° C. for two and one-half months. The sample was initially subjected to an HPLC test, and then again tested at the end of the storage period.

Structures are written as SMILES.

As for `O=C(O)COc1ccc(Cl)cc1Cl` [2,4-D], in data set [1], the “Final percent concentration of active in concentrate” value (“Final percent concentration” for short) is recorded as 8.987%, the “Initial percent concentration of active in concentrate” value (“Initial percent concentration” below) came to 9.203% and the “% Diff” value is recorded as −2.35%. In addition, in data set [2], the “Final percent concentration” value came out at 9.154%, the “Initial percent concentration” value came to 9.203% and the “% Diff” value was −0.53%.

Turning to `COc1c(Cl)ccc(Cl)c1C(=O)O` [Dicamba], in data set [1], the “Final percent concentration” value was determined as 1.091%, the “Initial percent concentration” value worked out at 1.141% and the “% Diff” value was −4.38%. Also, in data set [2], the “Final percent concentration” value worked out at 0.933%, the “Initial percent concentration” value stood at 0.946% and the “% Diff” value is listed as −1.37%.

Consider `CSC(=O)c1c(C(F)F)nc(C(F)(F)F)c(C(=O)SC)c1CC(C)C` [Dithiopyr], for which, in data set [1], the “Final percent concentration” value came out at 1.909%, the “Initial percent concentration” value stood at 1.977% and the “% Diff” value is −3.44%. For the same compound, in data set [2], the “Final percent concentration” value came out at 1.921%, the “Initial percent concentration” value is listed as 1.977% and the “% Diff” value was −2.83%.

For `O=C(O)c1c(Cl)ccc2cc(Cl)cnc12` [Quinclorac], in data set [1], the “Final percent concentration” value turned out to be 1.876%, the “Initial percent concentration” value is recorded as 1.91% and the “% Diff” value is reported as −1.78%. In data set [2], the “Final percent concentration” value was 1.929%, the “Initial percent concentration” value is listed as 1.91% and the “% Diff” value was determined as 0.99%.

For `Cc1nn(-c2cc(NS(C)(=O)=O)c(Cl)cc2Cl)c(=O)n1C(F)F` [Sulfentrazone], in data set [1], the “Final percent concentration” value came out at 0.363%, the “Initial percent concentration” value stood at 0.379% and the “% Diff” value is reported as −4.22%. In data set [2], the “Final percent concentration” value was 0.380%, the “Initial percent concentration” value is recorded as 0.379% and the “% Diff” value was 0.26%.
